Patent US20230414617A1, “PHARMACEUTICAL COMPOSITION COMPRISING ACID-BASE NEUTRALIZATION COMBINATION AND APPLICATION THEREOF” (CHENGDU KUACHANGAOPU MEDICAL TECHNOLOGY CO., LTD., priority 2020, published 2023)

Columns and labels:
sarcoma S180 cell = test: Tumor inhibition effect in mice bearing sarcoma S180 cell (Example 2); assay type: in vivo; conditions: intratumoral injection; for Tumor weight (x ± s): 150 μl/mouse, once every 3 days x3, 5th day after end; for Tumor inhibition rate: vs negative control group 01
Method: (§1) In the following examples of the present invention, the co-administration pharmaceutical efficacies of drug A and drug B combination administration was determined by ratio q of actual pharmaceutical efficacy/expected pharmaceutical efficacy according to Zhengjun JIN method, as follows.
In the tumor inhibition effect study, successfully modeled experimental animals (mice bearing sarcoma S180 cell, with an average tumor volume of 314 mm^3) were randomly divided into 2 negative control groups (01, 02) and 9 drug study groups (1-9). […] The negative control and study drugs were administered by intraperitoneal injection (groups 02, 6 and 9) and intratumoral injection (other study groups), respectively. Each group was administered once every 3 days for a total of 3 times, with an injection volume of 150 μl/mouse. On the 5th day after the administration was ended, the animals were euthanized, and the tumor weight was measured after anatomy to the animals. The tumor inhibition rate was calculated from the negative control group of each drug administration mode.

liver tissue = test: Tissue necrosis study: necrotic zone of liver tissue after intrahepatic injection (Example 2); assay type: in vivo, New Zealand Large White rabbits
Method: The rabbits were kept on conventional diet after drug administration, euthanized after 1 week, and the necrotic zone of the liver was determined after autopsy. The liver was incised along the center of the necrotic zone, and the extent of the necrotic zone was measured at the largest level, and the maximum and minimum diameters of the necrotic zone were measured respectively. The average diameter of the necrotic zone of liver tissue=(maximum diameter+minimum diameter)/2.

[1] = pH of the study drug aqueous solution; assay type: physicochemical
tumor = test: Tumor inhibition rate, general statements (chemical ablation study; positive controls); assay type: in vivo
breast cancer 4T1 cells [2] = test: Tumor inhibition, breast cancer 4T1 transplantation tumor (Example 3); assay type: in vivo, BALB/c mouse; conditions: intratumoral; for Tumor weight (x ± s): 150 μl/mouse, once every 3 days x3, 5th day after end; for Tumor inhibition rate: vs negative control
Method: as §1
In an experiment, the test animal was a BALB/c mouse, the modeling cells were breast cancer 4T1 cells, and the transplantation tumor was modeled at 1×10^6 cells/mouse under the skin of the animal's right axilla. […] Each group was administered by intratumoral injection once every 3 days for a total of 3 times, each time at an injection dose of 150 μl/mouse. On the 5th day after the administration was ended, the animals were euthanized, and the tumor weight was determined after anatomy to the animals. The tumor inhibition rate was calculated from the negative control group.

[3] = tested on: outer lateral muscle of right leg; test: Series A: tissue destruction in normal muscle after intramuscular injection (Example 10); assay type: in vivo, nude mice; conditions: one intramuscular injection 100 μl/mouse, day 3
Method: The test animals were divided into two series, A and B. The animals in series A were non-modeled nude mice, randomly divided into four groups, and were injected with the drugs according to groups 1-4 in Table 11 by intramuscular injection of outer lateral muscle of right leg. Each group was administered once, at an injection volume of 100 μl/mouse. On day 3 after the administration was ended, the animals were euthanized, and the specimens from outer lateral muscle mass of right leg of the nude mice were dissected and taken out, and gross pathological analysis was performed. The muscle sections were measured for distinguishing the area of tissue destruction region in the normal muscle (incomplete necrosis) (T3a) and the area of severe tissue destruction region therein (complete necrosis) […], and the results are shown in Table 11 below.

[4] = tested on: mouse liver cancer Hepa1-6 cells; test: Series B: tumor inhibition, Hepa1-6 transplantation tumor in 8-month-old mice (Example 10); assay type: in vivo; conditions: one intratumoral injection 100 μl/mouse; for r'3d, tumor inhibition rate (tumor volume): day 3; for r'14d, tumor inhibition rate (tumor volume): day 14
Method: The animals in series B were modeled in 8-month-old mice as a middle-aged and elderly patient model, which was not consistent with the commonly used young patient model in terms of tumor formation, tumor histomorphology, and body immunocompetence. […] The model animals were randomly divided into 13 groups. Each group was administered once by intratumoral injection according to the drug grouping in Table 11 with an injection volume of 100 μl/mouse.
The actual/expected ratio […] for short-term drug efficacy and the actual/expected ratio q14d for medium-term drug efficacy were calculated based on the drug efficacies (r′3d, […]) at different times (day 3, day 14), respectively.

breast cancer 4T1 cells [5] = test: Tumor inhibition, breast cancer 4T1 transplantation tumor (Example 4); assay type: in vivo, BALB/c mice; conditions: intratumoral
Method: as §1
In another experiment, the test animal was BALB/c mice, the modeling cells were breast cancer 4T1 cells, and the transplantation tumor was modeled at 1×10^6 cells/mouse under the skin of the animal's right axilla. Successfully modeled experimental animals (average tumor volume 307 mm^3) were randomly divided into 1 negative control group (group 0) and 13 drug study groups (groups 1-13). […] Each group was administered by intratumoral injection once every 3 days for a total of 3 times, each time at an injection dose of 150 μl/mouse. On the 5th day after the administration was ended, the animals were euthanized, and the tumor weight was measured after anatomy to the animals. The tumor inhibition rate was calculated from the negative control group.

breast cancer 4T1 cells [6] = test: Tumor inhibition, breast cancer 4T1 transplantation tumor (Example 7); assay type: in vivo, BALB/c mouse; conditions: intratumoral
Method: as §1
In an experiment, the test animal was a BALB/c mouse, the modeling cells were breast cancer 4T1 cells, and the transplantation tumor was modeled at 1×10^6 cells/mouse under the skin of the animal's right axilla. […] The negative controls and study drugs were administered intraperitoneally (groups 02, 11 and 15) and intratumorally (other study groups), respectively. All groups were dosed once every 3 days, for a total of 3 times, […], with an injection volume of 150 ul/mouse. On the 5th day after the administration was ended, the animals were euthanized, and the tumor weight was measured after anatomy to the animals. The tumor inhibition rate was calculated from the negative control group.

[7] = study drugs of Example 2 (Table 4), aqueous solution
[8] = positive controls, under the conditions of the following examples
[9] = study drugs of Example 3 (Table 5), aqueous solution

Q: Which results are given for `[Na+].[OH-]` [0.3% NaOH, sodium hydroxide]?
A: Tumor weight (x ± s) (sarcoma S180 cell): 1.52 ± 0.22 g; Tumor inhibition rate (sarcoma S180 cell): 31%; Diameter of necrotic zone of liver tissue (r ± s) (liver tissue; rabbit, in vivo): 1.3 ± 0.3 cm; pH [1, 7]: 13.3

Q: For `O=c1[nH]cc(F)c(=O)[nH]1` [0.5-1% 5-fluorouracil, 5-fluorouracil], which Tumor inhibition rate (tumor; [8]) is on record?
A: The Tumor inhibition rate was at least 30%.

Q: With `[Na+].[OH-]` [3% NaOH, sodium hydroxide] as the compound, how does the “Tumor weight (x ± s)” value (sarcoma S180 cell) read?
A: Its value is 1.04 ± 0.21 g.

Q: And the Tumor inhibition rate (sarcoma S180 cell)?
A: Its Tumor inhibition rate is 53%.

Q: And the “Diameter of necrotic zone of liver tissue (r ± s)” value (liver tissue; rabbit, in vivo)?
A: The value was 1.8 ± 0.5 cm.

Q: And the pH [1, 7]?
A: Its pH is 13.8.

Q: And the pH ([1]; study drugs of Example 2 (Table 4), aqueous solution, listed as 3% sodium hydroxide)?
A: Its pH is 11.8.

Q: And the pH [1, 9]?
A: Its pH is 13.7.

Q: And the “Tumor weight (x ± s)” value (breast cancer 4T1 cells [2])?
A: Its value is 1.09 ± 0.25 g.

Q: And the Tumor inhibition rate (breast cancer 4T1 cells [2])?
A: The Tumor inhibition rate was 55%.

Q: What about the “S3d, area of severe tissue destruction region (complete necrosis)” value [3] of the same compound?
A: The value was 18.3 mm^2.

Q: And the “T3d, area of tissue destruction region in the normal muscle (incomplete necrosis)” value [3]?
A: The value was 29.6 mm^2.

Q: And the “r'3d, tumor inhibition rate (tumor volume)” value [4]?
A: The value was 31.2%.

Q: What about the “r'14d, tumor inhibition rate (tumor volume)” value [4] of the same compound?
A: Its value is 2.8%.

Q: For `O=C([O-])O.[Na+]` [7% sodium bicarbonate, sodium bicarbonate], which “Tumor weight (x ± s)” value (sarcoma S180 cell) is on record?
A: Its value is 1.59 ± 0.20 g.

Q: And the Tumor inhibition rate (sarcoma S180 cell)?
A: The Tumor inhibition rate was 28%.

Q: What about the pH [1, 7] of the same compound?
A: The pH was 8.1.

Q: What about the pH [1, 9] of the same compound?
A: Its pH is 8.1.

Q: What about the “Tumor weight (x ± s)” value (breast cancer 4T1 cells [2]) of the same compound?
A: The value was 1.73 ± 0.27 g.

Q: And the Tumor inhibition rate (breast cancer 4T1 cells [2])?
A: The Tumor inhibition rate was 29%.

Q: And the “S3d, area of severe tissue destruction region (complete necrosis)” value [3]?
A: Its value is 0 mm^2.

Q: What about the “T3d, area of tissue destruction region in the normal muscle (incomplete necrosis)” value [3] of the same compound?
A: The value was 0 mm^2.

Q: What about the “r'3d, tumor inhibition rate (tumor volume)” value [4] of the same compound?
A: Its value is 4.1%.

Q: And the “r'14d, tumor inhibition rate (tumor volume)” value [4]?
A: The value was 3.9%.

Q: What does the source list for `N=C(N)NCCC[C@H](N)C(=O)O` [15% arginine, arginine]?
A: Tumor weight (x ± s) (sarcoma S180 cell): 2.01 ± 0.24 g; Tumor inhibition rate (sarcoma S180 cell): 23%; Diameter of necrotic zone of liver tissue (r ± s) (liver tissue; one intrahepatic injection of 1.0 mL, after 1 week): 0.2 ± 0.1 cm; pH [1, 7]: 10.9; pH ([1]; study drugs of Example 4 (Table 6), aqueous solution): 11.0; pH ([1]; study drugs of Example 7 (Table 9), aqueous solution): 10.9; Tumor weight (x ± s) (breast cancer 4T1 cells [5]; 150 μl/mouse, once every 3 days x3, 5th day after end): 1.74 ± 0.28 g; Tumor inhibition rate (breast cancer 4T1 cells [5]; vs negative control): 23%; Tumor weight (x ± s) (breast cancer 4T1 cells [6]; 150 ul/mouse, once every 3 days x3, 5th day after end): 1.64 ± 0.28 g; Tumor inhibition rate (breast cancer 4T1 cells [6]; vs negative control): 25%

Q: For `CCO` [75-99% ethanol, ethanol], which Tumor inhibition rate (tumor; [8]) is on record?
A: The Tumor inhibition rate was at least 15%.

Q: Which pH ([1]; sodium hydroxide solution before and after neutralization with sodium bicarbonate (e.g.)) does the source give for `[Na+].[OH-]` [sodium hydroxide] here?
A: The pH was 12.

Q: And the Tumor inhibition rate (tumor; chemical ablation study with basifying agents, model not stated)?
A: The Tumor inhibition rate was 43%.
